Experimental data: publication PMC3914206

Experiments:
Experiment in all cases: KiNativ chemical proteomics profiling in HeLa and PC3 cell lysates
Assay type in all cases: binding
[1] = target: T1, selected panels of kinases in HeLa and PC3 cell lysates (Homo sapiens, UniProt Q9UBS0); conditions: 10 uM; p70S6Kb; peptide DLk[…]; proteome HEL; labeling site Lys2
T1 construct: endogenous in cells; host or cells: HeLa and PC3 cell lysates

[2] = target: T2, selected panels of kinases in HeLa and PC3 cell lysates (Homo sapiens, UniProt Q15375); conditions: 10 uM; proteome PC3; peptide […]kIPVR; labeling site Activation Loop
T2 construct: endogenous in cells; host or cells: HeLa and PC3 cell lysates

[3] = target: T3, selected panels of kinases in HeLa and PC3 cell lysates (Homo sapiens, UniProt P15056); conditions: 10 uM; proteome HEL; peptide DLk[…]; labeling site Lys2
T3 construct: endogenous in cells; host or cells: HeLa and PC3 cell lysates

[4] = target: T4, selected panels of kinases in HeLa and PC3 cell lysates (Homo sapiens, UniProt Q9BZL6); conditions: 10 uM, PKD2, peptide DVAVkVIDK, labeling site Lys1
T4 construct: endogenous in cells; host or cells: HeLa and PC3 cell lysates
T4 sequence (Q9BZL6 1-878): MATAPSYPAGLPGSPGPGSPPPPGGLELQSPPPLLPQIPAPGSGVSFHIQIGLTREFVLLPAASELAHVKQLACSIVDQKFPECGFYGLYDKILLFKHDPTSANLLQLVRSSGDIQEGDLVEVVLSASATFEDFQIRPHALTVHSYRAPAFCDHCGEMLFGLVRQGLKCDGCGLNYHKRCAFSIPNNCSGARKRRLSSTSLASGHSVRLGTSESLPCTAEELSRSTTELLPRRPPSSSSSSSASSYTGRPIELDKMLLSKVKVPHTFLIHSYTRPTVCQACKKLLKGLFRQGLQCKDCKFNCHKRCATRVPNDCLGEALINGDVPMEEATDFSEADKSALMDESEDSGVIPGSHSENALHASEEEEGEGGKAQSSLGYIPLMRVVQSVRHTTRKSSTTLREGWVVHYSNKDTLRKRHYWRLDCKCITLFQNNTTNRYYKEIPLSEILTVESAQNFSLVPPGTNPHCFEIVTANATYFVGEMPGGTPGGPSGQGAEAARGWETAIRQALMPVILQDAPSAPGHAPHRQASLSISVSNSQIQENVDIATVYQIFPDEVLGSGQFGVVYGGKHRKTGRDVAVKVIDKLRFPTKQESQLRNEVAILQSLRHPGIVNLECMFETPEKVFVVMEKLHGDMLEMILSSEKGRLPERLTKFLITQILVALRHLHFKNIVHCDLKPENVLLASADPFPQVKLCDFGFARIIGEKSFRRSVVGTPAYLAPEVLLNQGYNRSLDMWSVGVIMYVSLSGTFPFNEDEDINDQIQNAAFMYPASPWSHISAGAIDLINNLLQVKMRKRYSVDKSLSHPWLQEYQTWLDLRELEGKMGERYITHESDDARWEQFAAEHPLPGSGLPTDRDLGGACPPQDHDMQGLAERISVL

[5] = target: T5, selected panels of kinases in HeLa and PC3 cell lysates (Homo sapiens, UniProt Q96Q15); conditions: 10 uM; SMG1; peptide […]kTKPK; proteome HEL; labeling site ATP
T5 construct: endogenous in cells; host or cells: HeLa and PC3 cell lysates

[6] = target: T6, selected panels of kinases in HeLa and PC3 cell lysates (Homo sapiens, UniProt P50750); conditions: 10 uM; proteome PC3; peptide DMkAANVLITR; labeling site Lys2
T6 construct: endogenous in cells; host or cells: HeLa and PC3 cell lysates

[7] = target: T7, selected panels of kinases in HeLa and PC3 cell lysates (Homo sapiens, UniProt Q13164); conditions: for ERK5 target occupancy (KiNativ): 10 μM, HeLa and PC3 cell lysates, only ERK5 exceeded this level; for % Inhibiton, Erk5: 10 uM, proteome HEL, peptide DLk[…], labeling site Lys2
T7 construct: endogenous in cells; host or cells: HeLa and PC3 cell lysates

[8] = target: T8, selected panels of kinases in HeLa and PC3 cell lysates (Homo sapiens, UniProt P23743); conditions: 10 uM; proteome HEL; peptide […]kSGGK; labeling site ATP
T8 construct: endogenous in cells; host or cells: HeLa and PC3 cell lysates

[9] = target: T9, selected panels of kinases in HeLa and PC3 cell lysates (Homo sapiens, UniProt P07948); conditions: 10 uM; proteome HEL; peptide VAVk[…]; labeling site Lys1
T9 construct: endogenous in cells; host or cells: HeLa and PC3 cell lysates

[10] = target: T10, selected panels of kinases in HeLa and PC3 cell lysates (Homo sapiens, UniProt Q14012); conditions: 10 uM; proteome HEL; peptide LVAIkCIAK; labeling site Lys1
T10 construct: endogenous in cells; host or cells: HeLa and PC3 cell lysates

[11] = target: T11, selected panels of kinases in HeLa and PC3 cell lysates (Homo sapiens, UniProt P08581); conditions: 10 uM, proteome PC3, labeling site Activation Loop
T11 construct: endogenous in cells; host or cells: HeLa and PC3 cell lysates

[12] = target: T12, selected panels of kinases in HeLa and PC3 cell lysates (Homo sapiens, UniProt Q9Y2U5); conditions: 10 uM, proteome PC3, labeling site Lys1
T12 construct: endogenous in cells; host or cells: HeLa and PC3 cell lysates
T12 sequence (Q9Y2U5 1-619): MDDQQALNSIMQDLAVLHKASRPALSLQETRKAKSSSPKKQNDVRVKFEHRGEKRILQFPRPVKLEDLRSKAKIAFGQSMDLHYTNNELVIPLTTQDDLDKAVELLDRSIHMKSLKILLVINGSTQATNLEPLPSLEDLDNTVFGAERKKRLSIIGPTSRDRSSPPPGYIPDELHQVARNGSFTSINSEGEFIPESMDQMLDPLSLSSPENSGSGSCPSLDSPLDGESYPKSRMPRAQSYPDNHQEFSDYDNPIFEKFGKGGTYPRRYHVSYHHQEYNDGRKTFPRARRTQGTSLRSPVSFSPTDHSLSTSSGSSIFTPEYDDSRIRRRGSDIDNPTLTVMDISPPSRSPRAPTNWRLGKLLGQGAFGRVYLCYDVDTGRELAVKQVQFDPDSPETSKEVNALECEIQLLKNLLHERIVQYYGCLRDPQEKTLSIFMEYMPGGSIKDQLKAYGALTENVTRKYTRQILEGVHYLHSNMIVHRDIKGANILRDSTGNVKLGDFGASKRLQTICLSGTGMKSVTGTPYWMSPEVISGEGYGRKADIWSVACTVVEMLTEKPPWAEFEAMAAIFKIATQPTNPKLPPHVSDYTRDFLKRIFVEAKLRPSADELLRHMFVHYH

[13] = target: T13, selected panels of kinases in HeLa and PC3 cell lysates (Homo sapiens, UniProt Q99683); conditions: 10 uM; proteome HEL; peptide DIk[…]; labeling site Lys2
T13 construct: endogenous in cells; host or cells: HeLa and PC3 cell lysates

[14] = target: T14, selected panels of kinases in HeLa and PC3 cell lysates (Homo sapiens, UniProt O94804); conditions: 10 uM
T14 construct: endogenous in cells; host or cells: HeLa and PC3 cell lysates

[15] = proteome HEL, peptide DLk[…], labeling site Lys2
[16] = proteome HEL, peptide […]kVIETK, labeling site Lys1
[17] = proteome PC3, peptide DLk[…], labeling site Lys2
[18] = proteome PC3, peptide […]kVIETK, labeling site Lys1

T7 sequence (Q13164 whole entry): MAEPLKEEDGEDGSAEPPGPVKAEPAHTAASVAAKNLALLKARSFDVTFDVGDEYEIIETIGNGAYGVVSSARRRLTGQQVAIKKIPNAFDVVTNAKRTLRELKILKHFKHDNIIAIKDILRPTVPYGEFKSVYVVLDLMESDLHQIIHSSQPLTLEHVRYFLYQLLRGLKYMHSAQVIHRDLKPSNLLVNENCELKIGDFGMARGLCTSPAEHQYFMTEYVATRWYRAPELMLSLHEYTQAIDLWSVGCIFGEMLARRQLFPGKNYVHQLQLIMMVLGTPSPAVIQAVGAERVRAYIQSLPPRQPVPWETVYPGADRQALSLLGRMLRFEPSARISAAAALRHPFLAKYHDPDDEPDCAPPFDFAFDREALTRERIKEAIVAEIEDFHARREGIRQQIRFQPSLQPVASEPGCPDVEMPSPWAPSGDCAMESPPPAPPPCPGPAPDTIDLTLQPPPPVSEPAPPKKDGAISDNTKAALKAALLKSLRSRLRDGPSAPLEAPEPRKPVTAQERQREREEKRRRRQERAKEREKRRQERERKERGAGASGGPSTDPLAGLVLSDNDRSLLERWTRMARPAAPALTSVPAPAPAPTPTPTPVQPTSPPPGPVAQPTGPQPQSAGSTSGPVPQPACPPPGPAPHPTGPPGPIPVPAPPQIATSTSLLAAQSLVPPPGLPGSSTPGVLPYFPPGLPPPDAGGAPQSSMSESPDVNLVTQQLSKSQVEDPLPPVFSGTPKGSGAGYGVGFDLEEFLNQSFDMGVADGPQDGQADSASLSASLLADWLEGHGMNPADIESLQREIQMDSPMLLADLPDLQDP
T14 sequence (O94804 whole entry): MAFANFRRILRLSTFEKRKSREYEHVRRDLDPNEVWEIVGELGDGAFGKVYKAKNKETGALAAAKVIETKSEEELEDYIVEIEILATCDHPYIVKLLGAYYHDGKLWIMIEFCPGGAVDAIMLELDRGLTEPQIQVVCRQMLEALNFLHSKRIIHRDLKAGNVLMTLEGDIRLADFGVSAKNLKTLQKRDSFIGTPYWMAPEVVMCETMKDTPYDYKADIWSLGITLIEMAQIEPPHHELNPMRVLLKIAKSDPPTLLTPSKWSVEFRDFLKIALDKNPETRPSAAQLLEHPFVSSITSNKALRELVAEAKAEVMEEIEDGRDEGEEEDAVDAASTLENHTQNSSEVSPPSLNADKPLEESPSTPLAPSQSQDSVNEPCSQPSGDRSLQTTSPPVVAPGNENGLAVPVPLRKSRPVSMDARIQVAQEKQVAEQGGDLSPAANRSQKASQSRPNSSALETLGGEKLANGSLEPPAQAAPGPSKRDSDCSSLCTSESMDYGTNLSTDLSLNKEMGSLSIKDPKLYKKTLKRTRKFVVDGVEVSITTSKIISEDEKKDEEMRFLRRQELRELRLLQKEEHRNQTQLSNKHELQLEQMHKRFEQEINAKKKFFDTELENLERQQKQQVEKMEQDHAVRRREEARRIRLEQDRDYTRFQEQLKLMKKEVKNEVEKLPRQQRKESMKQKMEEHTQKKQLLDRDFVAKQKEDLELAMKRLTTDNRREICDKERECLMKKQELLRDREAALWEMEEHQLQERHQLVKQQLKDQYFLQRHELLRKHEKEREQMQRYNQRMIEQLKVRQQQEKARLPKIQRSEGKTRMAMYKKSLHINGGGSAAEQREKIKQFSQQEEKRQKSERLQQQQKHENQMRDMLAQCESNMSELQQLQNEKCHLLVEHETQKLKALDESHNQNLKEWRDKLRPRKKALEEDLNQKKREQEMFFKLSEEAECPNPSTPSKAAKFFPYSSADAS
T11 sequence (P08581 25-1390): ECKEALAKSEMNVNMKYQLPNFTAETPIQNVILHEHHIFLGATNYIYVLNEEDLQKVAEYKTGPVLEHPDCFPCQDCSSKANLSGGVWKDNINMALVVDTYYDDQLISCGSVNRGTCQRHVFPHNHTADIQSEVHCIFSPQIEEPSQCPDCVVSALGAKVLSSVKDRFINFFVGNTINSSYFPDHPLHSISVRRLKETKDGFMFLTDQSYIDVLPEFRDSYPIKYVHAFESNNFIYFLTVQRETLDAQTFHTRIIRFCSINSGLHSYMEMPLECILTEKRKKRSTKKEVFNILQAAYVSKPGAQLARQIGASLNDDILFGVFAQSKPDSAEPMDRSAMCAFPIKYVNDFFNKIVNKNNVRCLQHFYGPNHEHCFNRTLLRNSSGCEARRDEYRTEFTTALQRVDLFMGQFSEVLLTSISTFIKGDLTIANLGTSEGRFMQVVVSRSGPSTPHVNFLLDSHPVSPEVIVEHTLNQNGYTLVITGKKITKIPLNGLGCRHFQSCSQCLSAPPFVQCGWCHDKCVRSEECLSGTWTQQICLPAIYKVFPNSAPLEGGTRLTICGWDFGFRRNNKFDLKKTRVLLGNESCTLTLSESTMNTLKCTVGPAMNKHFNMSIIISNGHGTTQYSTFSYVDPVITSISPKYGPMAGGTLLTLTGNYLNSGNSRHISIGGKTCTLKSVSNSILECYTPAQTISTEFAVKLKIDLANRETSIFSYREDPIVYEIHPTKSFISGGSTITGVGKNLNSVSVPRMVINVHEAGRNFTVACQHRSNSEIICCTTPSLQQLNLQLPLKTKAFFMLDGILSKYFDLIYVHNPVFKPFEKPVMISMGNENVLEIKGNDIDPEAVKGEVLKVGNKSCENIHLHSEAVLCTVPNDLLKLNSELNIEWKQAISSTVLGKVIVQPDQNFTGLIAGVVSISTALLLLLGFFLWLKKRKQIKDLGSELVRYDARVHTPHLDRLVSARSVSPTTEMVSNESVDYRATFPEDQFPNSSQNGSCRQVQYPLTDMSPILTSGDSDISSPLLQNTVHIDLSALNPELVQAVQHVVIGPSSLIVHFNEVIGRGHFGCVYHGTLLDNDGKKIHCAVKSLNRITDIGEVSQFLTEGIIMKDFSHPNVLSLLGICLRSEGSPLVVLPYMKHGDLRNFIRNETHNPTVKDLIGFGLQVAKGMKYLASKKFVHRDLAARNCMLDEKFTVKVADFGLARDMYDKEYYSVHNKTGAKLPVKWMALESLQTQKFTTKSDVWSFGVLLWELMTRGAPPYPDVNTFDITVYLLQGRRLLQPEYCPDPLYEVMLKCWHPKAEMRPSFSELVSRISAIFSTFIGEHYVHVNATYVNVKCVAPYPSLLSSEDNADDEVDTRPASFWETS
T8 sequence (P23743 whole entry): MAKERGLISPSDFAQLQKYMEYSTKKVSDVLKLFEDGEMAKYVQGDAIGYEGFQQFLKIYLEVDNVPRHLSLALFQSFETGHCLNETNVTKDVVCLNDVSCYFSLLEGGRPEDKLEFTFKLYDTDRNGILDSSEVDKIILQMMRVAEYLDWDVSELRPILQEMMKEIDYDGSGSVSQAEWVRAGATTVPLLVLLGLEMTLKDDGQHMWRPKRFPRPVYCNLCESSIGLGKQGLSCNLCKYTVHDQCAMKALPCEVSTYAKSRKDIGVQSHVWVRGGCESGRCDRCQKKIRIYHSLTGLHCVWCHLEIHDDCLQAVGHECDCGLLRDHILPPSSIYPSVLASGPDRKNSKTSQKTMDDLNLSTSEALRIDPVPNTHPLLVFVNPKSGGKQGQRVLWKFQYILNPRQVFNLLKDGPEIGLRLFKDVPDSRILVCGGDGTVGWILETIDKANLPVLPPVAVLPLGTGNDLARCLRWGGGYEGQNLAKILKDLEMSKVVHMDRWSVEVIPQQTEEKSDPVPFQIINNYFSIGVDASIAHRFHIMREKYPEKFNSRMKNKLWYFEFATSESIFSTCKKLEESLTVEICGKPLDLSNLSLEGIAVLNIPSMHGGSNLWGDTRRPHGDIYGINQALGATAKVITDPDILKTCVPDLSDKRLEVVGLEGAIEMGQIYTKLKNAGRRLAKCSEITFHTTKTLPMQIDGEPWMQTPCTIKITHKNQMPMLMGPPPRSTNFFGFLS
T6 sequence (P50750 whole entry): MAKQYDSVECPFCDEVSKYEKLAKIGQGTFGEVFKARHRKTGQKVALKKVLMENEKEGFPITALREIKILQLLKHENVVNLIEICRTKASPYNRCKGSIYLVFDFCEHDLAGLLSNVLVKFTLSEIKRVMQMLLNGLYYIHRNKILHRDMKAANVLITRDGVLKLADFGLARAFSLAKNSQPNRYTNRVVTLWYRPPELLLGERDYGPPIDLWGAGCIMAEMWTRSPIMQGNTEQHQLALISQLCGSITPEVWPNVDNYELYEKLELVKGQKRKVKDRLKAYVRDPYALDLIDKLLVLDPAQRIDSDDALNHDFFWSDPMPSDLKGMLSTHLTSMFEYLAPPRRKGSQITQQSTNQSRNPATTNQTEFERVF
T3 sequence (P15056 whole entry): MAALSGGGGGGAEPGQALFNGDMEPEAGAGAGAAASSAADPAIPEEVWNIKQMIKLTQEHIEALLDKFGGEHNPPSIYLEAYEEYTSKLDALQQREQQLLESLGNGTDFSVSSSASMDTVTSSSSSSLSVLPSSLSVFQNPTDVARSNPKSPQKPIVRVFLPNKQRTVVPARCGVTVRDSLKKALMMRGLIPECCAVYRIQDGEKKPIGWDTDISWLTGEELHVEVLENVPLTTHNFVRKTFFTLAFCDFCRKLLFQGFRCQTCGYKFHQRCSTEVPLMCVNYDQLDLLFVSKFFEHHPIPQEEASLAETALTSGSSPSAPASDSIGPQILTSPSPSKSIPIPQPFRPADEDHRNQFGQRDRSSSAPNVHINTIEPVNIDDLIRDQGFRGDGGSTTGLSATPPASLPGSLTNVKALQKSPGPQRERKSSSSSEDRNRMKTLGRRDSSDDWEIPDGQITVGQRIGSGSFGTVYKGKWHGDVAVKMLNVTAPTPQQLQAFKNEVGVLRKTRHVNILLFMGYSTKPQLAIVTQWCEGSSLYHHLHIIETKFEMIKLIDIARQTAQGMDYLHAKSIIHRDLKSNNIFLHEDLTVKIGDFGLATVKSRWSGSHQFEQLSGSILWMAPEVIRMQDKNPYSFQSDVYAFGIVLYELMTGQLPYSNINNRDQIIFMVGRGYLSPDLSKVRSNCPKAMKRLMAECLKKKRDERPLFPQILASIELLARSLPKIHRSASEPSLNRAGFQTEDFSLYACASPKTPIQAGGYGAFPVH

CCOc1cc(C(=O)N2CCC(N3CCN(C)CC3)CC2)ccc1Nc1ncc2c(n1)N(C1CCCC1)c1ccccc1C(=O)N2C [Compound 26]
% Inhibition p70S6Kb [1]: -21.4%
% Inhibiton, EphA7 [2]: 8.5%
% Inhibiton, BRAF [3]: 8.6%
% Inhibition PKD2 ([4]; proteome HEL): -14.3%
% Inhibition PKD2 ([4]; proteome PC3): 26.9%
% Inhibition SMG1 [5]: -4.8%
% Inhibiton, CDK9 [6]: 0.7%
ERK5 target occupancy (KiNativ) [7]: higher than 90%
% Inhibiton, Erk5 [7]: 94.3%
% Inhibiton, DGKA [8]: 5.7%
% Inhibiton, LYN [9]: 26.5%
% Inhibiton, CaMK1a [10]: 36%
% Inhibiton, MET ([11]; peptide DMYDkEYYSVHNK): -12.7%
% Inhibiton, MET ([11]; peptide […]kTGAK): 9.2%
% Inhibiton, MAP3K2 ([12]; peptide ELAVk[…]): -11.2%
% Inhibiton, MAP3K2 ([12]; peptide […]k[…]): -12.3%
% Inhibiton, MAP3K5 [13]: -8.4%
% Inhibiton, LOK [14, 15]: -13%
% Inhibiton, LOK [14, 16]: 24.4%
% Inhibiton, LOK [14, 17]: 11.4%
% Inhibiton, LOK [14, 18]: 10%

COc1cc(C(=O)N2CCC(N3CCN(C)CC3)CC2)ccc1Nc1ncc2c(n1)N(C1CCCC1)c1ccccc1C(=O)N2C [Compound 25, 11-cyclopentyl-2-((2-methoxy-4-(4-(4-methylpiperazin-1-yl)piperidine-1-carbonyl)phenyl)amino)-5-methyl-5H-benzo[e]pyrimido[5,4-b][1,4]diazepin-6(11H)-one]
% Inhibition p70S6Kb [1]: 8.4%
% Inhibiton, EphA7 [2]: -3.8%
% Inhibiton, BRAF [3]: -0.2%
% Inhibition PKD2 ([4]; proteome HEL): -7.1%
% Inhibition PKD2 ([4]; proteome PC3): -2.6%
% Inhibition SMG1 [5]: -21.0%
% Inhibiton, CDK9 [6]: 10.0%
ERK5 target occupancy (KiNativ) [7]: higher than 90%
% Inhibiton, Erk5 [7]: >95%
% Inhibiton, DGKA [8]: 8.1%
% Inhibiton, LYN [9]: -2.9%
% Inhibiton, CaMK1a [10]: 19.1%
% Inhibiton, MET ([11]; peptide DMYDkEYYSVHNK): -15.9%
% Inhibiton, MET ([11]; peptide […]kTGAK): 4.8%
% Inhibiton, MAP3K2 ([12]; peptide ELAVk[…]): 15.5%
% Inhibiton, MAP3K2 ([12]; peptide […]k[…]): 23.7%
% Inhibiton, MAP3K5 [13]: 17.3%
% Inhibiton, LOK [14, 15]: 3.2%
% Inhibiton, LOK [14, 16]: 2.1%
% Inhibiton, LOK [14, 17]: 8.0%
% Inhibiton, LOK [14, 18]: 1.9%
